Measurements as given in patent US9113629B2, “4-amino-6-(4-substituted-phenyl)-picolinates and 6-amino-2-(4-substituted-phenyl)-pyrimidine-4-carboxylates and their use as herbicides” (DOW AGROSCIENCES LLC, priority 2013, dated 2015).
Like-named read-outs stand apart in the source and are kept apart here.

Assays:
[1] = tested on: Key Grass and Sedge Weeds as well as Grass Crops; experiment: Post-emergent Test II herbicidal activity (Table 6); type: in vivo; settings: post-emergence, 336 h; for pest or weed control at 70 g/ha: application rate 70 g ai/ha; for pest or weed control at 140 g/ha: application rate 140 g ai/ha
In short: (§1)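 Plants grown in Metro-Mix 360 (pH 6.0–6.8) in a greenhouse (~15 h photoperiod, 23–29 °C day) to first or second true leaf stage, then sprayed with compound in acetone/DMSO/aqueous crop-oil-surfactant carrier at 187 L/ha by track sprayer. Injury visually scored 0–100% versus untreated plants after 14 d.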

[2] = tested on: Key Broadleaf Weed and Crop Species; experiment: Post-emergent Test II herbicidal activity (Table 5); type: in vivo; settings: post-emergence, 336 h, post-emergent, 14 days after application; for pest or weed control at 70 g/ha: 70 g ai/ha; for pest or weed control at 140 g/ha: 140 g ai/ha
In short: as §1

[3] = Triticum aestivum, TRZSS (wheat), read-out: Visual Growth Reduction (%) 14 Days After Application, TRZSS
[4] = CYPES: yellow nutsedge (Cyperus esculentus), read-out: Visual Growth Reduction (%) 14 Days After Application, CYPES
[5] = DIGSA: crabgrass (Digitaria sanguinalis), read-out: Visual Growth Reduction (%) 14 Days After Application, DIGSA
[6] = ECHCG: barnyardgrass (Echinochloa crus-galli), read-out: Visual Growth Reduction (%) 14 Days After Application, ECHCG
[7] = ORYSA: rice (Oryza sativa), read-out: Visual Growth Reduction (%) 14 Days After Application, ORYSA
[8] = SETFA: giant foxtail (Setaria faberi), read-out: Visual Growth Reduction (%) 14 Days After Application, SETFA
[9] = SORVU: grain sorghum (Sorghum vulgare), read-out: Visual Growth Reduction (%) 14 Days After Application, SORVU
[10] = ZEAMX: maize, corn (Zea mays), read-out: Visual Growth Reduction (%) 14 Days After Application, ZEAMX
[11] = ABUTH: velvetleaf (Abutilon theophrasti), read-out: Visual Growth Reduction (%) 14 Days After Application ABUTH
[12] = AMARE: redroot pigweed (Amaranthus retroflexus), read-out: Visual Growth Reduction (%) 14 Days After Application AMARE
[13] = BRSNN: oilseed-rape, canola (Brassica napus), read-out: Visual Growth Reduction (%) 14 Days After Application BRSNN
[14] = CHEAL: lambsquarters (Chenopodium album), read-out: Visual Growth Reduction (%) 14 Days After Application CHEAL
[15] = EPHHL: wild poinsettia (Euphorbia heterophylla), read-out: Visual Growth Reduction (%) 14 Days After Application EPHHL
[16] = HELAN: sunflower (Helianthus annuus), read-out: Visual Growth Reduction (%) 14 Days After Application HELAN
[17] = VIOTR: wild pansy (Viola tricolor), read-out: Visual Growth Reduction (%) 14 Days After Application VIOTR

Row | SMILES | pest or weed control at 70 g/ha [1, 3] [%] | pest or weed control at 140 g/ha [1, 3] [%] | pest or weed control at 70 g/ha [1, 4] [%] | pest or weed control at 140 g/ha [1, 4] [%] | pest or weed control at 140 g/ha [1, 5] [%] | pest or weed control at 70 g/ha [1, 6] [%] | pest or weed control at 140 g/ha [1, 6] [%] | pest or weed control at 70 g/ha [1, 7] [%] | pest or weed control at 140 g/ha [1, 7] [%] | pest or weed control at 70 g/ha [1, 8] [%] | pest or weed control at 140 g/ha [1, 8] [%] | pest or weed control at 70 g/ha [1, 9] [%] | pest or weed control at 140 g/ha [1, 9] [%] | pest or weed control at 70 g/ha [1, 10] [%] | pest or weed control at 140 g/ha [1, 10] [%] | pest or weed control at 70 g/ha [2, 11] [%] | pest or weed control at 140 g/ha [2, 11] [%] | pest or weed control at 70 g/ha [2, 12] [%] | pest or weed control at 140 g/ha [2, 12] [%] | pest or weed control at 70 g/ha [2, 13] [%] | further results
1 | COC(=O)c1nc(-c2cc(F)c(Br)cc2F)nc(N)c1OC [Compound 2] | 45 to 59 | 45 to 59 | 60 to 74 | 60 to 74 | 60 to 74 | 60 to 74 | 60 to 74 | 0 to 29 | 0 to 29 | 45 to 59 | 60 to 74 | 30 to 44 | 60 to 74 | 75 to 84 | 75 to 84 | 95 to 100 | 95 to 100 | 85 to 94 | 85 to 94 | 95 to 100 | pest or weed control at 140 g/ha [2, 13]: 95 to 100%; pest or weed control at 70 g/ha [2, 14]: 95 to 100%; pest or weed control at 140 g/ha [2, 14]: 95 to 100%; pest or weed control at 70 g/ha [2, 15]: 95 to 100%; pest or weed control at 140 g/ha [2, 15]: 95 to 100%; pest or weed control at 70 g/ha [2, 16]: 95 to 100%; pest or weed control at 140 g/ha [2, 16]: 95 to 100%; pest or weed control at 70 g/ha [2, 17]: 30 to 44%; pest or weed control at 140 g/ha [2, 17]: 95 to 100%; melting point: 186 to 187 °C
2 | COC(=O)c1nc(-c2ccc(I)cc2F)cc(N)c1Cl [Compound 159] | 60 to 74 | 60 to 74 | 95 to 100 | 95 to 100 | 85 to 94 | 85 to 94 | 95 to 100 | 0 to 29 | 0 to 29 | 75 to 84 | 95 to 100 | 95 to 100 | 95 to 100 | 60 to 74 | 75 to 84 | 95 to 100 | 95 to 100 | 95 to 100 | 95 to 100 | 85 to 94 | pest or weed control at 70 g/ha [1, 5]: 85 to 94%; pest or weed control at 140 g/ha [2, 13]: 85 to 94%; pest or weed control at 70 g/ha [2, 14]: 95 to 100%; pest or weed control at 140 g/ha [2, 14]: 95 to 100%; pest or weed control at 70 g/ha [2, 15]: 95 to 100%; pest or weed control at 140 g/ha [2, 15]: 95 to 100%; pest or weed control at 70 g/ha [2, 16]: 75 to 84%; pest or weed control at 140 g/ha [2, 16]: 95 to 100%; pest or weed control at 70 g/ha [2, 17]: 0 to 29%; pest or weed control at 140 g/ha [2, 17]: 45 to 59%; melting point: 139.8 to 141.2 °C
3 | COC(=O)c1nc(-c2ccc(OC(F)F)cc2)cc(N)c1Cl [Compound 23] | 0 to 29 | 0 to 29 | 45 to 59 | 75 to 84 | 75 to 84 | 85 to 94 | 95 to 100 | 0 to 29 | 0 to 29 | 0 to 29 | 45 to 59 | 85 to 94 | 95 to 100 | 0 to 29 | 0 to 29 | 95 to 100 | 95 to 100 | 95 to 100 | 95 to 100 | 0 to 29 | pest or weed control at 70 g/ha [1, 5]: 75 to 84%; pest or weed control at 140 g/ha [2, 13]: 0 to 29%; pest or weed control at 70 g/ha [2, 14]: 85 to 94%; pest or weed control at 140 g/ha [2, 14]: 95 to 100%; pest or weed control at 70 g/ha [2, 15]: 95 to 100%; pest or weed control at 140 g/ha [2, 15]: 95 to 100%; pest or weed control at 70 g/ha [2, 16]: 0 to 29%; pest or weed control at 140 g/ha [2, 16]: 85 to 94%; pest or weed control at 70 g/ha [2, 17]: 0 to 29%; pest or weed control at 140 g/ha [2, 17]: 0 to 29%; melting point: 166.4 to 169 °C
